In brackets after ≈: the same amount, converted by molar mass. Like-named read-outs stand apart in the source and are kept apart here.
Experiments:
Format in all cases: cell-based
E. coli ATCC 25922 = assay: MIC (CLSI broth microdilution), wild-type E. coli; conditions: ATCC 25922 (Table S4); for MIC: Escherichia coli, ATCC25922, read-out: MIC E. coli EN0001
Procedure: (§1) Minimum inhibitory concentration (MIC) values were determined according to the Clinical Laboratory Standards Institute guidelines. Frequency of resistance was determined by plating ~5 × 10^8 bacterial cells on agar-solidified media plates containing test compound at concentrations corresponding to four times the measured solid-media MIC of the strains. Colonies were counted after 24 h, restreaked onto media containing the same concentration of compound, and the MIC remeasured against the assayed compound. Genomic DNA from isolated clones was sequenced by paired-end sequencing on an Illumina MiSeq device. Complete experimental details available in SI Appendix. […]
Minimum inhibitory concentration (MIC) determination. Broth microdilution and agar dilution
MIC assays were conducted according to CLSI guidelines (M07-2012). Appropriate inoculation
suspension density was assessed using a Sensititre Nephelometer with a Sensititre 0.5
(§2) McFarland Standard. […]

[1] = system: clinical MDR E. coli isolates; assay: MIC, clinical multi-drug resistant E. coli isolates; conditions: for MIC: Escherichia coli
Procedure: as §1
(§3) Minimum inhibitory concentration (MIC) determination. Broth microdilution and agar dilution MIC assays were conducted according to CLSI guidelines (M07-2012). Appropriate inoculation suspension density was assessed using a Sensititre Nephelometer with a Sensititre 0.5 […]
as §2
Whole-genome sequencing and data analysis. Genomic DNA of selected clones was prepared using an Epicentre MasterPure Complete DNA Purification Kit. Whole-genome sequencing libraries were prepared using an Illumina Nextera XT Library Preparation Kit. The libraries were sequenced using an Illumina MiSeq device with a V3 600-cycle reagent kit. Whole-genome sequencing data was analyzed using CLC Genomics Workbench Version 11. To determine the genotype of MDR strains from the ENABLE strain collection, de novo assembled contigs were […]

[2] = system: clinical MDR K. pneumoniae isolates; assay: MIC, clinical multi-drug resistant K. pneumoniae isolates; conditions: for MIC: Klebsiella pneumoniae
Procedure: as §1, §3, §2
To determine the […]
genotype of MDR strains from the ENABLE strain collection, de novo assembled contigs were […]

[3] = read-out: MIC K. pneumoniae EN0140
[4] = read-out: MIC K. pneumoniae EN0142
[5] = read-out: MIC K. pneumoniae EN0143
[6] = read-out: MIC K. pneumoniae EN0144
[7] = read-out: MIC K. pneumoniae EN0145
[8] = read-out: MIC K. pneumoniae EN0233
[9] = read-out: MIC K. pneumoniae EN0245
[10] = read-out: MIC K. pneumoniae EN0504

Compound	MIC (E. coli ATCC 25922)	MIC ([1]; read-out: MIC E. coli EN0134)	MIC ([1]; read-out: MIC E. coli EN0135)	MIC ([1]; read-out: MIC E. coli EN0136)	MIC ([1]; read-out: MIC E. coli EN0137)	MIC ([1]; read-out: MIC E. coli EN0138)	MIC ([1]; read-out: MIC E. coli EN0139)	MIC ([1]; read-out: MIC E. coli EN0303)	MIC ([1]; read-out: MIC E. coli EN0481)	MIC [2, 3]	MIC [2, 4]	MIC [2, 5]	MIC [2, 6]	MIC [2, 7]	MIC [2, 8]	MIC [2, 9]	MIC [2, 10]	also measured
CO/N=C(\C(=O)N[C@@H]1C(=O)N2C(C(=O)O)=C(COC(C)=O)CS[C@H]12)c1csc(N)n1 [Cefotaxime]	0.5 mg/L (≈ 1.1 µM)	8 mg/L (≈ 17.6 µM)	2 mg/L (≈ 4.39 µM)	4 mg/L (≈ 8.78 µM)	> 64 mg/L	> 64 mg/L	> 64 mg/L	> 64 mg/L	> 64 mg/L	> 64 mg/L	> 64 mg/L	16 mg/L (≈ 35.1 µM)	> 64 mg/L	> 64 mg/L	> 64 mg/L	64 mg/L (≈ 141 µM)	> 64 mg/L	–
CNC(C)C1CCC(N)C(OC2C(N)CC(N)C(OC3OCC(C)(O)C(NC)C3O)C2O)O1 (centres unmarked) [Gentamicin]	1 mg/L (≈ 2.09 µM)	2 mg/L (≈ 4.19 µM)	> 64 mg/L	> 64 mg/L	> 64 mg/L	8 mg/L (≈ 16.8 µM)	2 mg/L (≈ 4.19 µM)	2 mg/L (≈ 4.19 µM)	> 64 mg/L	> 64 mg/L	64 mg/L (≈ 134 µM)	0.5 mg/L (≈ 1.05 µM)	> 64 mg/L	2 mg/L (≈ 4.19 µM)	> 64 mg/L	2 mg/L (≈ 4.19 µM)	0.5 mg/L (≈ 1.05 µM)	–
C[C@@H](O)[C@H]1C(=O)N2C(C(=O)O)=C(S[C@@H]3CN[C@H](C(=O)N(C)C)C3)[C@H](C)[C@H]12 [Meropenem]	≤ 0.125 mg/L	≤ 0.125 mg/L	≤ 0.125 mg/L	≤ 0.125 mg/L	≤ 0.125 mg/L	≤ 0.125 mg/L	≤ 0.125 mg/L	≤ 0.125 mg/L	≤ 0.125 mg/L	2 mg/L (≈ 5.22 µM)	0.5 mg/L (≈ 1.3 µM)	≤ 0.125 mg/L	64 mg/L (≈ 167 µM)	8 mg/L (≈ 20.9 µM)	2 mg/L (≈ 5.22 µM)	2 mg/L (≈ 5.22 µM)	4 mg/L (≈ 10.4 µM)	–
Colistin	–	–	–	–	–	–	–	–	–	–	–	–	–	–	–	–	–	MIC E. coli EN0001 (E. coli ATCC 25922): 2 mg/L; MIC E. coli EN0135 ([1]; MDR (aac(3)-IIa, blaTEM-1B, blaSHV-12 ...)): 2 mg/L; MIC E. coli EN0134 ([1]; MDR (blaCMY-4, blaTEM-1B ...)): 2 mg/L; MIC E. coli EN0138 ([1]; MDR (blaCTX-M-14b, blaTEM-1C ...)): 2 mg/L; MIC E. coli EN0139 ([1]; MDR (blaOXA-1, blaCTX-M-15 ...)): 2 mg/L; MIC E. coli EN0137 ([1]; MDR (blaOXA-1, blaTEM-1B, blaCTX-M-15 ...)): 2 mg/L; MIC E. coli EN0136 ([1]; MDR (blaOXA-2, blaTEM-1B, blaCTX-M-2 ...)): 1 mg/L; MIC E. coli EN0481 ([1]; colistinR (mcr-1), MDR (rmtB ...)): 8 mg/L; MIC E. coli EN0303 ([1]; colistinR (pmrB T156M), MDR): 8 mg/L; MIC K. pneumoniae EN0144 ([2]; MBL (blaVIM-26), MDR): 2 mg/L; MIC K. pneumoniae EN0145 ([2]; MDR (blaCTX-M-15 ...)): 2 mg/L; MIC K. pneumoniae EN0140 ([2]; MDR (blaDHA-1 ...), OmpK36 loss): 2 mg/L; MIC K. pneumoniae EN0143 ([2]; MDR (blaOXA-2, blaSHV-12 ...)): 2 mg/L; MIC K. pneumoniae EN0142 ([2]; carbapenemR (blaKPC-2), MDR): 2 mg/L; MIC K. pneumoniae EN0233 ([2]; carbapenemR (blaOXA-48), MDR, OmpK36 loss): 32 mg/L; MIC K. pneumoniae EN0245 ([2]; colistinR (mgrB::IS10), MDR): 64 mg/L; MIC K. pneumoniae EN0504 ([2]; colistinR, MDR): 64 mg/L

— PMC11009625, “Antibiotic class with potent in vivo activity targeting lipopolysaccharide synthesis in Gram-negative bacteria” (Proceedings of the National Academy of Sciences of the …, 2024)
